Experimental data reported in publication PMC6504873, “High-throughput screening of the Plasmodium falciparum cGMP-dependent protein kinase identified a thiazole scaffold which kills erythrocytic and sexual stage parasites” (Scientific Reports, 2019).
≈ marks a conversion by molar mass, not a printed value.

Legend:
HuPKGIα = biological target: T1, HuPKGIα (Homo sapiens, UniProt Q13976); assay: Kinase Glo enzymatic assay, human PKG; type: biochemical; settings: human PKGIα; read-out: Hu PKGIα
T1 construct: His6; host or cells: Spodoptera frugiperda 21 cells (baculovirus)
T1 sequence (Q13976 1-671): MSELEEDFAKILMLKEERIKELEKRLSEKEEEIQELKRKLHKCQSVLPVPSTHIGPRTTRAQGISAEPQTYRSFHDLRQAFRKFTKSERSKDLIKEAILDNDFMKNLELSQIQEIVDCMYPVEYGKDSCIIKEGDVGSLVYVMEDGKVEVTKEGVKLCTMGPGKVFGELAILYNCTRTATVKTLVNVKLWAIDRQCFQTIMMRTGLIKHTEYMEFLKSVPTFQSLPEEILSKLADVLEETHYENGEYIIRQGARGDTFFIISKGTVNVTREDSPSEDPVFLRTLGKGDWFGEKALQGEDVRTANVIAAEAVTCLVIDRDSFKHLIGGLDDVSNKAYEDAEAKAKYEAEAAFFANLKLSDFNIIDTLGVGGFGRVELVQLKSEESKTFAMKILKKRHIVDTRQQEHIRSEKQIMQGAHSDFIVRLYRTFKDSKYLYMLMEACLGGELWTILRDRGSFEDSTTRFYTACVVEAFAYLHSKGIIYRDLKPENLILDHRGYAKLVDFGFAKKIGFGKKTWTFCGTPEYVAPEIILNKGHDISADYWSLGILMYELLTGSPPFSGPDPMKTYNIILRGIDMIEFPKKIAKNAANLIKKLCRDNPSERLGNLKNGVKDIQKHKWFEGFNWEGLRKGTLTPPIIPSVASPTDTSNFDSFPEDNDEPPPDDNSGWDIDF
Procedure: To identify new PKG inhibitor scaffolds, the 1.7 million GlaxoSmithKline Full Diversity collection was tested at a single final concentration of 10 μM against recombinant full length wild type (WT) PfPKG using a Kinase Glo-based assay (Promega). […] Fresh samples of these primary hits were tested in duplicate against WT PfPKG and also against human PKGIα (HuPKGIα) (Supplementary Fig. 1) at a final concentration of 10 μM (confirmation step).
The expression vector encoding His6-cGK1α (HuPKGIα) was used to generate recombinant baculoviruses using the Bac-to-Bac system (Invitrogen) following the manufacturer’s protocol. These baculoviruses were used to infect Spodoptera frugiperda 21 cells (1.5 × 10^6/ml) at a multiplicity of infection of 5 and the infected cells were harvested 48 hours post-infection. His6-cGK1α was purified on Cobalt agarose and dialysed into 50 mM Tris-HCl pH 7.5, 0.1 mM EGTA, 150 mM NaCl, 270 mM sucrose, 0.03% Brij-35, 0.1% 2-mercaptoethanol, 1 mM benzamidine, 0.1 mM phenylmethylsulfonyl fluoride (PMSF).
Initial optimization of the PKG assay was performed manually in 384-well plates and analysed with GraFit 7. The buffer for all assays was 25 mM HEPES pH 7.3 (GIBCO), 10 mM MgCl2 (Sigma), 2 mM DTT (Sigma), 0.01 mM cGMP (Sigma), 0.1 mg/ml BSA (Ambion). Enzymatic activity was tested using a luminescence-based kit (Promega KinaseGlo). Addition of the first reagent depletes the unused ATP and addition of the second reagent converts ADP (product of the kinase reaction) to ATP, which is then measured through a luciferin/luciferase reaction. The amount of luminescence is directly proportional to ATP turnover by the kinase. The kit was chosen because it can be miniaturized to small volumes (i.e. 4 µl) in 1536-well plates, for use in HTS.
We used PKA peptide substrate (SCP0212, Sigma-Aldrich) for WT and TQ PfPKG, dissolved in milliQ water at a final concentration of 5 mM, and Long S6 peptide substrate (produced at the University of Dundee, sequence […]) for HuPKGIα, dissolved in water at a final concentration of 30 mM.
We calculated the Michaelis-Menten (Km) constant for ATP and peptide substrate (PKA or Long S6) for all enzymes using GraphPad Prism (Supplementary Figs 2 and 3 and Supplementary Table 3). In order to identify different types of PKG inhibitors, including ATP competitive or non-competitive inhibitors, as well as inhibitors that bind to the peptide substrate pocket, we performed all assays using ATP and peptide substrate at a concentration equal to the Km. We also determined enzyme activity by calculating ATP turnover (Kcat) over the Km (Supplementary Table 3). The Kcat was calculated as (Vmax*slope)/[E] where Vmax is the maximum velocity and [E] is the concentration of the enzyme.
The plates containing the compounds were prepared at GSK in Upper Providence or Stevenage. Compounds were tested at a single final concentration of 10 µM or in a dose response with a range of concentrations starting from 100 μM to 1.6 nM (1 in 3 serial dilutions). Compounds were dispensed in the plates at the required concentration in a 40 nl volume. All plates (1536-well white Greiner) contained 40 nl of DMSO in lanes 11 and 12 (control 1, 100% enzyme activity) and were empty in lanes 35 and 36 (control 2, 0% enzyme activity). The plates were removed from −20 °C 1 hour before starting the assay. Using a Multidrop Combi dispenser (Thermo Scientific), 2 µl of the buffer containing ATP and the substrate were added to all wells then 2 µl of buffer only were added to column 35 and 36. Finally 2 µl of buffer containing the enzyme were dispensed in all the plate wells except for lanes 35 and 36. After 1 hour incubation at 21 °C 2 µl of ADP-Glo reagent (Promega KinaseGlo kit), previously supplemented with 0.02% CHAPS (Sigma), were added to all wells.

PI3KD = PI3KD (Homo sapiens, UniProt O00329); assay: Preliminary safety test on human PI3KD kinase; type: biochemical
Chain of PI3KD (O00329 whole entry): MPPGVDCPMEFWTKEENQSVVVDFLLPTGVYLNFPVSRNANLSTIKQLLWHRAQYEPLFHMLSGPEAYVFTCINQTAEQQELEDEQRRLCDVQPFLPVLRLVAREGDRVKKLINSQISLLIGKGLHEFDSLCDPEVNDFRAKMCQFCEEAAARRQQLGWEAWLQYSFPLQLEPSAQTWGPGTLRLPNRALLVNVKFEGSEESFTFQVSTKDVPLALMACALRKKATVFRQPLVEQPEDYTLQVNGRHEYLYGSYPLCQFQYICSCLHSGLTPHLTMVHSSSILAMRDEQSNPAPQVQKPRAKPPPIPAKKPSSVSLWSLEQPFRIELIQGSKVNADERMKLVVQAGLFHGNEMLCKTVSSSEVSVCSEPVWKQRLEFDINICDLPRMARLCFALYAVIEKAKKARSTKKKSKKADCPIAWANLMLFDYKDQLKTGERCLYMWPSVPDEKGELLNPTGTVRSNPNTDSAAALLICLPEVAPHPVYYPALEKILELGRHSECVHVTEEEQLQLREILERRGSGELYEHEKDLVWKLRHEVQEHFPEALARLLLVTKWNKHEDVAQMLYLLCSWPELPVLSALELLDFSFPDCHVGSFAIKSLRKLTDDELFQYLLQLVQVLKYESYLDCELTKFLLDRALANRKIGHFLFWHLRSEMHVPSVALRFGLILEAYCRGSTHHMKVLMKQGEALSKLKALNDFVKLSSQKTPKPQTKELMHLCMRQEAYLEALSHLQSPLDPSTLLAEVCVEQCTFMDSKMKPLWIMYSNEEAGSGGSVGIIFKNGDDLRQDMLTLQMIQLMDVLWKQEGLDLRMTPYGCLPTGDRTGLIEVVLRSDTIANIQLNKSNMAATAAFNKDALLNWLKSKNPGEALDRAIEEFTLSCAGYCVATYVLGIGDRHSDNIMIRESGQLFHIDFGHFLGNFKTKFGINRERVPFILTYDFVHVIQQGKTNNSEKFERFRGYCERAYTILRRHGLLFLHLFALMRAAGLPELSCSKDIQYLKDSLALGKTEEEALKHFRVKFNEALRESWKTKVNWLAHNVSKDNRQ
Chain of PI3KD (P27986 whole entry partner): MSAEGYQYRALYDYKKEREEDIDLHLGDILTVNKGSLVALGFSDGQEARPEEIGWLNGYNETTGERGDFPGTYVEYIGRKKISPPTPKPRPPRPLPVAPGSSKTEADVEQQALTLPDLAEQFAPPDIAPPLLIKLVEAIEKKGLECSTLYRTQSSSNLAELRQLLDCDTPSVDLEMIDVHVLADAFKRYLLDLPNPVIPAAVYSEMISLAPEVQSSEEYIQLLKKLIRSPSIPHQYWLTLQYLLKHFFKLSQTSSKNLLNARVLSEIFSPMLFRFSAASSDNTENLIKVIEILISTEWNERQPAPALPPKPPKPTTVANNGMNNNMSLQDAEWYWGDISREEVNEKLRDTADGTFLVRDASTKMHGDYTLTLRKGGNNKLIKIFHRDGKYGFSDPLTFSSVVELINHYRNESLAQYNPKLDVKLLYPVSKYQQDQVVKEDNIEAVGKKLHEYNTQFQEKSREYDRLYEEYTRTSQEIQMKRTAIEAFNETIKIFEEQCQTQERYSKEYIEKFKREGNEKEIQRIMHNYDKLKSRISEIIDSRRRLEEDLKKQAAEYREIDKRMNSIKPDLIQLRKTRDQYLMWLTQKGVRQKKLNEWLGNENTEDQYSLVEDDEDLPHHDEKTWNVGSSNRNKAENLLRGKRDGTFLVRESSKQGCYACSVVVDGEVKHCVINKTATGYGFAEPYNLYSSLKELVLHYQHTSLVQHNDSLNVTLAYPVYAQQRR

[1] = Aqueous kinetic solubility assay (CAD); type: physicochemical; settings: several values in a cell = replicates
Procedure: […] of 10 mM DMSO compound solution is diluted to 100 μl with pH7.4 phosphate buffered saline, equilibrated for 1 hour at room temperature and filtered through Millipore MultiscreenHTS-PCF filter plates (MSSL BPC). The filtrate is quantified by suitably calibrated Charged Aerosol Detector[56].

[2] = phosphate buffered saline, pH 7.4, aqueous buffer, kinetic from dmso stock

Structure (SMILES)	IC50 (HuPKGIα)	IC50 (PI3KD)	solubility at 1 h [1, 2]	solubility at 1 h [1]
CCn1cc(-c2ccncn2)c(-c2cccc(NS(=O)(=O)c3cc(F)ccc3F)c2)n1 [Compound 2]	> 100 µM	> 50.1 µM	412 µM (≈ 182 µg/mL)	
Cc1ccc(S(C)(=O)=O)cc1Nc1nccc(-c2sc(CC(N)=O)nc2-c2ccccc2)n1 [Compound 3]	> 100 µM	0.0794 µM	138 µM (≈ 66.2 µg/mL)	124 µM (≈ 59.5 µg/mL)
CC(C)(CN)c1cc(-c2ccc(Cl)c(O)c2)c(-c2ccncc2)o1 [Compound 4]	15 µM	> 50.1 µM	252 µM (≈ 86.4 µg/mL)	
CCn1c(-c2nonc2N)nc2c(-c3ccccc3)ncc(CN(C)C3CCN(C)CC3)c21 [Compound 5]	40.3 µM	> 50.1 µM		
CNS(=O)(=O)c1cccc(Nc2ccnc(Nc3cccc(S(=O)(=O)NC)c3)n2)c1 [Compound 6]	44.2 µM	2.5 µM	180 µM (≈ 80.7 µg/mL)	
COc1ccc(-c2c(-c3cccc(C(=O)N4CCN(C)CC4)c3)oc3ncnc(N)c23)cc1 [Compound 7]	> 100 µM	39.8 µM	180 µM (≈ 79.8 µg/mL)	
COc1ccc(CCNC(=O)CSc2ncnc3[nH]ncc23)cc1OC [Compound 8]	> 100 µM	> 50.1 µM	254 µM (≈ 94.9 µg/mL)	
COc1cccc(Nc2nc(-c3ccncc3)cc(N3CCN(C)CC3)n2)c1 [Compound 9]	> 100 µM	> 50.1 µM	82 µM (≈ 30.9 µg/mL)	
COc1cc(CS(C)(=O)=O)ccc1Nc1nc(Nc2cc(F)ccc2C(N)=O)c2cc[nH]c2n1 [Compound 10]	> 100 µM	> 50.1 µM		
O=C(N[C@@H](CO)c1ccccc1)c1ccc2cncc(-c3cn[nH]c3)c2n1 [Compound 11]	6.1 µM	7.9 µM	4 µM (≈ 1.44 µg/mL)	
NCCNCc1ccc(-c2cc3ccncc3cc2OC2CCNCC2)s1 [Compound 12]	13.8 µM			
CNCCOc1cnc(-c2ccoc2C)c(-c2ccc3cnccc3c2)c1 [Compound 13]	7.4 µM	> 50.1 µM	418 µM (≈ 150 µg/mL)	
O=C(c1cccc(OCc2cccnc2)c1)N1CCc2sccc2C1CN1CCCCC1 (centres unmarked) [Compound 14]	> 100 µM	> 50.1 µM	168 µM (≈ 75.2 µg/mL)	
Nc1ccc2c(-c3ccncc3)c(-c3ccc(Cl)c(O)c3)[nH]c2n1 [Compound 15]	45.2 µM	10 µM		
Nc1nc(Nc2cccc3cnccc23)nn1C(=O)C1CCCCC1 [Compound 16]	22.4 µM	> 50.1 µM	69 µM (≈ 23.2 µg/mL)	
